Test results published in patent publication US12054449B2, “Phenylcarbamate crystalline form and method for manufacturing the same” (BIO-PHARM SOLUTIONS CO., LTD., priority 2021, dated 2024).
Values after ≈ are worked out from the molar mass of the structure shown. “Also recorded” adds a separate entry of the source. Where two headings read alike, the source gives them in different places.

Key:
Format in all cases: physicochemical
[1] = Log D (shake flask at pH 5) and Log P
[2] = Gravimetric vapor sorption (GVS)
Method: Sorption isotherms were obtained using an SMS DVS intrinsic water absorption analyzer controlled by SMS Analysis Suite software. A sample temperature was maintained at 25° C. throughout. Humidity was controlled by a mixed stream of dry and wet nitrogen with a total flow rate of 200 mL/min. The relative humidity was measured with a calibrated Rotronic probe (dynamic range: 1.0-100% RH) located near the sample. The weight change (mass relaxation) of the sample as a function of % RH was continuously monitored using a microbalance (accuracy±0.005 mg). 5 to 20 mg of the sample was stored in a prepared stainless steel mesh basket under atmospheric conditions.

[3] = Storage under stress humidity (40° C./75% RH or RT/97% RH, 7 days) with XRPD, UPLC, 1H NMR
[4] = Thermodynamic solubility by UPLC in biological media (FaSSGF, FaSSIF); conditions: thermodynamic from solid, 37° C., 24 h orbital shaker, all solids dissolved
Method: A thermodynamic solubility in water was determined by providing a suitable concentration of compound prepared by suspending a sufficient compound in water or buffer according to estimated solubilities of the medium and the compound. Quantification was done by UPLC with reference to a standard calibration curve. A solubility was calculated with QuanLynx using a peak area determined by the integration of a peak found at the same retention time as the main peak in the standard injection.
To measure the solubility of ED01748-006-001-00 Pattern 1, experiments were carried out in biological media (Fasted simulated gastric fluid (FaSSGF) and Fasted simulated intestinal fluid (FaSSIF)) at 37° C. […] each of samples was dispersed into each of four vials, 1 mL each of FaSSGF and FaSSIF was added to each of the two vials and incubated in an orbital shaker for 24 hours. After incubation, all solids in each sample were dissolved, and the solubility was measured as follows.

[5] = Change of crystalline form on standing or drying (XRPD); conditions: left overnight on the XRPD disc under laboratory conditions
Method: XRPD patterns were detected by CuKα irradiation (30 kV, 10 mA) using a Bruker AXS D2 diffractometer. The analysis was performed using θ-θ geometry and a LynxEye detector at 5 to 42° 2θ with a step size of 0.024° 2θ at 0.1 sec/step.
Samples were run at ambient conditions and prepared as flat specimens using powder received without grinding. About 1 to 2 mg of the sample was lightly pressed on a silicon wafer to obtain a flat surface.

[6] = Melting and cooling of Pattern 1 (DSC A experiment; melting and rapid cooling), degradation by 1H NMR/UPLC
Method: A portion of ED01748-006-001-00 was heated in a differential scanning calorimeter at 10° C./min to 110° C., and then cooled to 30° C. at 50° C./min. The contents of a DSC pan were analyzed by ^1H NMR.
Each (about 10 mg) of two ED01748-006-001-00 samples was put into a vial, and then into a drying pistol which had been preheated to 110° C. for 10 minutes under ambient pressure. The molten sample was removed, followed by rapid cooling with dry ice. The glass material from the first sample was rapidly crystallized by impacting a part that characterized it. As a result of XRPD analysis, the glass material was identified as Pattern 1 (FIG. 7).

[7] = Polymorphic screening with solvents and solvent/antisolvent
[8] = 110° C. for 10 minutes, rapid cooling with dry ice

C[C@H](OC(N)=O)[C@@H](O)c1ccccc1Cl [ED01748-006-001-00, 1-(2-chlorophenyl)-(S)-1-hydroxypropyl-(S)-2-carbamate]
logP [1]: 1.32
logD ([1]; shake flask): 1.32
XRPD post GVS (change in form) ([2]; after GVS experiment): no change in morphology; also recorded: Shows no change in form by XRPD post GVS
GVS mass increase ([2]; second sorption cycle, 0-90% RH, 25° C., listed as Pattern 1): 0.14%
1H NMR post storage at 40° C./75% RH for 7 days ([3]; 40° C./75% RH): Consistent with structure
XRPD post storage at 40° C./75% RH for 7 days (change in form) ([3]; 40° C./75% RH): no change in morphology; also recorded: Shows no change in form by XRPD post storage
UPLC purity post storage at 40° C./75% RH for 7 days ([3]; 40° C./75% RH, initial UPLC purity 98.6%): 97.4%
XRPD post storage at 40° C./75% RH for 7 days (change in form) ([3]; 40° C./75% RH, listed as Pattern 1): no morphological change
1H NMR purity post storage at RT/97% RH for 7 days ([3]; RT/97% RH): Consistent with structure
XRPD post storage at RT/97% RH for 7 days (change in form) ([3]; RT/97% RH): no change in morphology; also recorded: Shows no change in form by XRPD post storage
UPLC purity post storage at RT/97% RH for 7 days ([3]; RT/97% RH, initial UPLC purity 98.6%): 97.7%
XRPD post storage at RT/97% RH for 7 days (change in form) ([3]; RT/97% RH, listed as Pattern 1): no morphological change
solubility at 24 h ([4]; fasted simulated gastric fluid (FaSSGF), fassgf or other biorelevant, fasted simulated gastric fluid, read-out: FaSSGF solubility after 24 h): 16.8 mg/mL (≈ 73.3 mM)
solubility at 24 h ([4]; fasted simulated intestinal fluid (FaSSIF), fassif, fasted simulated intestinal fluid, read-out: FaSSIF solubility after 24 h): 14.1 mg/mL (≈ 61.2 mM)
Form by XRPD after being left overnight [5]: Pattern 3
Decomposition after melting and rapid cooling (1H NMR or UPLC) [6, 8]: not significantly decomposed
UPLC purity after melting and rapid cooling [6, 8]: 98.7%
Degradation after melting and cooling (1H NMR) ([6]; heated 10° C./min to 110° C., cooled to 30° C. at 50° C./min): no degradation or migration
Result ([7]; Exp. 1, 2-propanol 60 ul / Toluene 100 ul, Shaken RT, refrigerated): Soluble
Initial result ([7]; Exp. 1, solvent 2-propanol 60 ul, anti-solvent Toluene 100 ul): Soluble
Result ([7]; Exp. 2, 2-propanol 60 ul / Heptane 200 ul, Shaken RT, refrigerated): Soluble
Initial result ([7]; Exp. 2, solvent 2-propanol 60 ul, anti-solvent Heptane 200 ul): Soluble
Result ([7]; Exp. 3, 2-propanol 60 ul / Diethyl ether 100 ul, Shaken RT, refrigerated): Soluble
Initial result ([7]; Exp. 3, solvent 2-propanol 60 ul, anti-solvent Diethyl ether 100 ul): Soluble
Result ([7]; Exp. 4, 2-propanol 60 ul / TBME 200 ul, Shaken RT, refrigerated): Soluble
Initial result ([7]; Exp. 4, solvent 2-propanol 60 ul, anti-solvent TBME 200 ul): Soluble
Result ([7]; Exp. 5, acetone 60 ul / Toluene 100 ul, Shaken RT, refrigerated): Soluble
Initial result ([7]; Exp. 5, solvent acetone 60 ul, anti-solvent Toluene 100 ul): Soluble
Result ([7]; Exp. 6, acetone 60 ul / Heptane 175 ul, notes: oil): oil
Initial result ([7]; Exp. 6, solvent acetone 60 ul, anti-solvent Heptane 175 ul): Cloudy
Result ([7]; Exp. 7, acetone 60 ul / Diethyl ether 100 ul, Shaken RT, refrigerated): Soluble
Initial result ([7]; Exp. 7, solvent acetone 60 ul, anti-solvent Diethyl ether 100 ul): Soluble
Result ([7]; Exp. 8, acetone 60 ul / TBME 100 ul, Shaken RT, refrigerated): Soluble
Initial result ([7]; Exp. 8, solvent acetone 60 ul, anti-solvent TBME 100 ul): Soluble
Result: crystalline form obtained (XRPD) ([7]; Exp. 9, chloroform 60 ul / Toluene 100 ul): Pattern 9
Result ([7]; Exp. 9, chloroform 60 ul / Toluene 100 ul, Shaken RT, solid XRPD): Crystalline
Initial result ([7]; Exp. 9, solvent chloroform 60 ul, anti-solvent Toluene 100 ul): Precipitate
Result: crystalline form obtained (XRPD) ([7]; Exp. 10, chloroform 60 ul / Heptane 25 ul): Pattern 8
Result ([7]; Exp. 10, chloroform 60 ul / Heptane 25 ul, Shaken RT, solid XRPD): Crystalline
Initial result ([7]; Exp. 10, solvent chloroform 60 ul, anti-solvent Heptane 25 ul): Precipitate
Result ([7]; Exp. 11, chloroform 60 ul / Diethyl ether 100 ul, Shaken RT, refrigerated): Soluble
Initial result ([7]; Exp. 11, solvent chloroform 60 ul, anti-solvent Diethyl ether 100 ul): Soluble
Result ([7]; Exp. 12, chloroform 60 ul / TBME 100 ul, Shaken RT, refrigerated): Soluble
Initial result ([7]; Exp. 12, solvent chloroform 60 ul, anti-solvent TBME 100 ul): Soluble
Result: crystalline form obtained (XRPD) ([7]; Exp. 13, DCM 80 ul / Toluene 100 ul): Pattern 9
Result ([7]; Exp. 13, DCM 80 ul / Toluene 100 ul, Shaken RT, solid XRPD): Crystalline
Initial result ([7]; Exp. 13, solvent DCM 80 ul, anti-solvent Toluene 100 ul): Precipitate
Result ([7]; Exp. 14 (second line so numbered), DCM 80 ul / Diethyl ether 100 ul, Shaken RT, refrigerated): Soluble
Initial result ([7]; Exp. 14 (second line so numbered), solvent DCM 80 ul, anti-solvent Diethyl ether 100 ul): Soluble
Result: crystalline form obtained (XRPD) ([7]; Exp. 14, DCM 80 ul / Heptane 50 ul): Pattern 8
Result ([7]; Exp. 14, DCM 80 ul / Heptane 50 ul, Shaken RT, solid XRPD): Crystalline
Initial result ([7]; Exp. 14, solvent DCM 80 ul, anti-solvent Heptane 50 ul): Precipitate
Result ([7]; Exp. 16, DCM 80 ul / TBME 100 ul, Shaken RT, refrigerated): Soluble
Initial result ([7]; Exp. 16, solvent DCM 80 ul, anti-solvent TBME 100 ul): Soluble
Result: crystalline form obtained (XRPD) ([7]; Exp. 18, ethyl acetate 60 ul / Heptane 100 ul): Pattern 11
Result ([7]; Exp. 18, ethyl acetate 60 ul / Heptane 100 ul, Oil, then solid formed): Crystalline
Initial result ([7]; Exp. 18, solvent ethyl acetate 60 ul, anti-solvent Heptane 100 ul): Cloudy
Result ([7]; Exp. 19, ethyl acetate 60 ul / Diethyl ether 100 ul, Shaken RT, refrigerated): Soluble
Initial result ([7]; Exp. 19, solvent ethyl acetate 60 ul, anti-solvent Diethyl ether 100 ul): Soluble
Result ([7]; Exp. 20, ethyl acetate 60 ul / TBME 100 ul, Shaken RT, refrigerated): Soluble
Initial result ([7]; Exp. 20, solvent ethyl acetate 60 ul, anti-solvent TBME 100 ul): Soluble
Result ([7]; Exp. 21, ethyl acetate 60 ul / Pentane 225 ul, notes: Oil): Oil
Initial result ([7]; Exp. 21, solvent ethyl acetate 60 ul, anti-solvent Pentane 225 ul): Cloudy
Result ([7]; Exp. 22, ethyl acetate 60 ul / cyclohexane 350 ul, Shaken RT, solid XRPD): Crystalline,
Initial result ([7]; Exp. 22, solvent ethyl acetate 60 ul, anti-solvent cyclohexane 350 ul): Precipitate
Result ([7]; Exp. 23, ethyl acetate 60 ul / methylcyclohexane 325 ul, Shaken RT, solid XRPD): Crystalline,
Initial result ([7]; Exp. 23, solvent ethyl acetate 60 ul, anti-solvent methylcyclohexane 325 ul): Precipitate
Result ([7]; Exp. 24, chloroform 60 ul / Pentane 75 ul, Shaken RT, solid XRPD): Crystalline
Initial result ([7]; Exp. 24, solvent chloroform 60 ul, anti-solvent Pentane 75 ul): Precipitate
Result ([7]; Exp. 25, chloroform 60 ul / cyclohexane 125 ul, Shaken RT, solid XRPD): Crystalline
Initial result ([7]; Exp. 25, solvent chloroform 60 ul, anti-solvent cyclohexane 125 ul): Precipitate
Result ([7]; Exp. 26, chloroform 60 ul / methylcyclohexane 75 ul, Shaken RT, solid XRPD): Crystalline
Initial result ([7]; Exp. 26, solvent chloroform 60 ul, anti-solvent methylcyclohexane 75 ul): Precipitate
Result ([7]; Exp. 27, DCM 80 ul / Pentane 100 ul, Shaken RT, solid XRPD): Crystalline
Initial result ([7]; Exp. 27, solvent DCM 80 ul, anti-solvent Pentane 100 ul): Precipitate
Result ([7]; Exp. 28, DCM 80 ul / cyclohexane 50 ul, Shaken RT, solid XRPD): Crystalline
Initial result ([7]; Exp. 28, solvent DCM 80 ul, anti-solvent cyclohexane 50 ul): Precipitate
Result ([7]; Exp. 29, DCM 80 ul / methylcyclohexane 50 ul, Shaken RT, solid XRPD): Crystalline
Initial result ([7]; Exp. 29, solvent DCM 80 ul, anti-solvent methylcyclohexane 50 ul): Precipitate
Result ([7]; Exp. number not given, ethyl acetate 60 ul / Toluene 100 ul, Shaken RT, refrigerated): Soluble
Initial result ([7]; Exp. number not given, solvent ethyl acetate 60 ul, anti-solvent Toluene 100 ul): Soluble
